From BindingDB's records for doi:10.1021/jm00003a001 (Glaxo Research Institute, 1995)

biological target: DNA topoisomerase 1 (Bos taurus); experiment: Inhibition of topoisomerase I activity was determined in vitro by using the cleavable complex assay(calf thymus)

First: CC[C@@]1(O)C(=O)OCc2c1cc1n(c2=O)Cc2c-1nc1cc3c(cc1c2CN1CCN(C)CC1)OCCO3 [8-ethyl-8-hydroxy-15-(4-methylhexahydro-1-pyrazinylmethyl)-(8S)-2,3,8,9,12,14-hexahydro-11H-[1,4]dioxino[2,3-g]pyrano[3',4':6,7]indolizino[1,2-b]quinoline-9,12-dione with trifluoroaceticacid]
Second: CC[C@@]1(O)C(=O)OCc2c1cc1n(c2=O)Cc2c-1nc1cc3c(cc1c2CCl)OCCO3 [15-chloromethyl-8-ethyl-8-hydroxy-(8S)-2,3,8,9,12,14-hexahydro-11H-[1,4]dioxino[2,3-g]pyrano[3',4':6,7]indolizino[1,2-b]quinoline-9,12-dione]
The IC50 of the first is 38-fold higher: 416 nM for the first, 11 nM for the second.

`CC[C@@]1(O)C(=O)OCc2c1cc1n(c2=O)Cc2c-1nc1cc3c(cc1c2CCl)OCO3` [14-chloromethyl-7-ethyl-7-hydroxy-(7S)-7,8,11,13-tetrahydro-10H-[1,3]dioxolo[4,5-g]pyrano[3',4':6,7]indolizino[1,2-b]quinoline-8,11-dione] was tested, and the IC50 was 15 nM.
